Test results published in patent US20240158446A1, “CYCLIC COMPOUND HAVING SELECTIVE INHIBITORY ACTION ON KRAS OVER HRAS AND NRAS” (CHUGAI SEIYAKU KABUSHIKI KAISHA, priority 2021, published 2024).

Legend:
[1] = target: GDP-bound KRAS wild-type protein (Homo sapiens, UniProt P01116); assay: Binding to KRAS by surface plasmon resonance (SPR), Single Cycle Kinetics; conditions: SPR, Single Cycle Kinetics, 1:1 binding model; GDP-bound KRAS wild-type protein; read-out: KRAS KD
[2] = target: GDP-bound NRAS wild-type protein (Homo sapiens, UniProt P01111); assay: Binding to NRAS by surface plasmon resonance (SPR), Single Cycle Kinetics; conditions: SPR; GDP-bound NRAS wild-type protein vs GDP-bound KRAS wild-type protein; KD ratio class
Sequence of GDP-bound NRAS wild-type protein (P01111 whole entry): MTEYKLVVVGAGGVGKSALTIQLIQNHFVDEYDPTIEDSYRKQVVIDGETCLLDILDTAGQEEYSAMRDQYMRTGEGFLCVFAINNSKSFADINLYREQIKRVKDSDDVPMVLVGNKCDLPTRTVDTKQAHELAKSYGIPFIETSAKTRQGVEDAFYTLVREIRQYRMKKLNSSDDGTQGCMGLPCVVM

[3] = target: GDP-bound HRAS wild-type protein (Homo sapiens, UniProt P01112); assay: Binding to HRAS by surface plasmon resonance (SPR), Single Cycle Kinetics; conditions: SPR; GDP-bound HRAS wild-type protein vs GDP-bound KRAS wild-type protein; KD ratio class
Sequence of GDP-bound HRAS wild-type protein (P01112 whole entry): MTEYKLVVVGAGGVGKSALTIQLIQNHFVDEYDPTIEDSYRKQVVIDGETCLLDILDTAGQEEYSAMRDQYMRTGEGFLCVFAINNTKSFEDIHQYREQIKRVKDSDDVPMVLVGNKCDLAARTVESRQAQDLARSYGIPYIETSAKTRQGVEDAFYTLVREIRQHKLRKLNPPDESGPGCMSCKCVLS

[4] = test system: human lung cancer strain NCI-H441;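 also: cell proliferation inhibition after four days measured by CellTiter-Glo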

Sequence of GDP-bound KRAS wild-type protein (P01116 whole entry): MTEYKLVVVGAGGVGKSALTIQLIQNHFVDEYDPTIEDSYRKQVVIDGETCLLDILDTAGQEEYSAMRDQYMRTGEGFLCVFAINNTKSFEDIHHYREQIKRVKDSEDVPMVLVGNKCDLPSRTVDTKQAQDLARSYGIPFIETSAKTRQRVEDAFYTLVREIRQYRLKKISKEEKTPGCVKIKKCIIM

Question: For `CC[C@H](C)[C@@H]1NC(=O)[C@H](CC)N(C)C(=O)C[C@@H](C(=O)N(C)C)N(C)C(=O)[C@H](C2CCCC2)N(C)C(=O)C2(CCC2)NC(=O)[C@@H]2C[C@H](C)CN2C(=O)[C@H](CCc2cc(F)c(C(F)(F)F)c(F)c2)NC(=O)CN(C)C(=O)[C@H](CC2CCC(F)(F)CC2)N2CC/C=C\C[C@@H](C2=O)N(C)C(=O)CN(C)C1=O` [PP1457, (2S,8S,12S,14S,20S,23S,27S,30S,36S,38Z)-20-cyclopentyl-2-[(4,4-difluorocyclohexyl)methyl]-8-[2-[3,5-difluoro-4-(trifluoromethyl)phenyl]ethyl]-27-ethyl-N,N,4,12,19,22,26,32,35-nonamethyl-30-[(1S)-1-methylpropyl]-3,6,9,15,18,21,25,28,31,34,42-undecaoxo-spiro[1,4,7,10,16,19,22,26,29,32,35-undecazatricyclo[34.5.1.0^10,14]dotetracont-38-ene-17,1′-cyclobutane]-23-carboxamide], which Kd [1] is on record?
Answer: 0.15 nM

Question: What about the “NRAS/KRAS (ratio of KD value for NRAS to KD value for KRAS)” value [2] of the same compound?
Answer: A (a compound having 10 or more and less than 20 is denoted as A)

Question: And the “HRAS/KRAS (ratio of KD value for HRAS to KD value for KRAS)” value [3]?
Answer: A (a compound having 10 or more and less than 20 is denoted as A)

Question: What about the IC50 [4] of the same compound?
Answer: 30.4 nM

Question: What does the source list for `CCO[C@@H]1C[C@H]2C(=O)NC3(CCC3)C(=O)N(C)[C@@H](C3CCCC3)C(=O)N(C)[C@H](C(=O)N(C)C)CC(=O)N(C)[C@@H](CC3CCCC3)C(=O)N[C@@H]([C@@H](C)CC)C(=O)N(C)CC(=O)N(C)[C@H]3C/C=C\CCN(C3=O)[C@@H](CC3CCC(F)(F)CC3)C(=O)N(C)CC(=O)N[C@@H](CCc3cc(F)c(C(F)(F)F)c(F)c3)C(=O)N2C1` [PP1458]?
Answer: Kd [1]: 0.15 nM; NRAS/KRAS (ratio of KD value for NRAS to KD value for KRAS) [2]: A (a compound having 10 or more and less than 20 is denoted as A); HRAS/KRAS (ratio of KD value for HRAS to KD value for KRAS) [3]: A (a compound having 10 or more and less than 20 is denoted as A); IC50 [4]: 18.2 nM

Question: For `CCO[C@@H]1C[C@H]2C(=O)NC3(CCCC3)C(=O)N(C)[C@@H](C3CCCC3)C(=O)N(C)[C@H](C(=O)N(C)C)CC(=O)N(C)[C@@H](CC(C)C)C(=O)N[C@@H]([C@@H](C)CC)C(=O)N(C)CC(=O)N(C)[C@H]3C/C=C\CCN(C3=O)[C@@H](CC3CCC(F)(F)CC3)C(=O)N(C)CC(=O)N[C@@H](CCc3cc(F)c(C(F)(F)F)c(F)c3)C(=O)N2C1` [PP1459], which Kd [1] is on record?
Answer: 0.2 nM

Question: What about the “NRAS/KRAS (ratio of KD value for NRAS to KD value for KRAS)” value [2] of the same compound?
Answer: A (a compound having 10 or more and less than 20 is denoted as A)

Question: And the “HRAS/KRAS (ratio of KD value for HRAS to KD value for KRAS)” value [3]?
Answer: A (a compound having 10 or more and less than 20 is denoted as A)

Question: And the IC50 [4]?
Answer: 38.6 nM

Question: `CCO[C@@H]1C[C@H]2C(=O)NC3(CCC3)C(=O)N(C)[C@@H](C3CCCC3)C(=O)N(C)[C@H](C(=O)N(C)C)CC(=O)N(C)[C@@H](CC(C)(C)C)C(=O)N[C@@H]([C@@H](C)CC)C(=O)N(C)CC(=O)N(C)[C@H]3C/C=C\CCN(C3=O)[C@@H](CC3CCC(F)(F)CC3)C(=O)N(C)CC(=O)N[C@@H](CCc3cc(F)c(C(F)(F)F)c(F)c3)C(=O)N2C1` [PP1460] was tested. Which Kd [1] did it give?
Answer: 0.23 nM

Question: And the “NRAS/KRAS (ratio of KD value for NRAS to KD value for KRAS)” value [2]?
Answer: A (a compound having 10 or more and less than 20 is denoted as A)

Question: What about the “HRAS/KRAS (ratio of KD value for HRAS to KD value for KRAS)” value [3] of the same compound?
Answer: A (a compound having 10 or more and less than 20 is denoted as A)

Question: And the IC50 [4]?
Answer: 32.9 nM

Question: Which Kd [1] does the source give for `CC[C@H](C)[C@@H]1NC(=O)[C@H](CC)N(C)C(=O)C[C@@H](C(=O)N(C)C)N(C)C(=O)[C@H](C2CCCC2)N(C)C(=O)C2(CCC2)NC(=O)[C@@H]2CCCN2C(=O)[C@H](CCc2cc(F)c(C(F)(F)F)c(F)c2)NC(=O)CN(C)C(=O)[C@H](CC2CCC(F)(F)CC2)N2CC/C=C\C[C@@H](C2=O)N(C)C(=O)CN(C)C1=O` [PP1461] here?
Answer: 0.27 nM

Question: And the “NRAS/KRAS (ratio of KD value for NRAS to KD value for KRAS)” value [2]?
Answer: A (a compound having 10 or more and less than 20 is denoted as A)

Question: And the “HRAS/KRAS (ratio of KD value for HRAS to KD value for KRAS)” value [3]?
Answer: A (a compound having 10 or more and less than 20 is denoted as A)

Question: What about the IC50 [4] of the same compound?
Answer: 121 nM

Question: What does the source list for `CC[C@H](C)[C@@H]1NC(=O)[C@H](CC)N(C)C(=O)C[C@@H](C(=O)N(C)C)N(C)C(=O)[C@H](C2CCCC2)N(C)C(=O)C2(CCC2)NC(=O)[C@@H]2CC(F)(F)CN2C(=O)[C@H](CCc2cc(F)c(C(F)(F)F)c(F)c2)NC(=O)CN(C)C(=O)[C@H](CC2CCCCC2)N2CC/C=C\C[C@@H](C2=O)N(C)C(=O)CN(C)C1=O` [PP1462, (2S,8S,14S,20S,23S,27S,30S,36S,38Z)-2-(cyclohexylmethyl)-20-cyclopentyl-8-[2-[3,5-difluoro-4-(trifluoromethyl)phenyl]ethyl]-27-ethyl-12,12-difluoro-N,N,4,19,22,26,32,35-octamethyl-30-[(1S)-1-methylpropyl]-3,6,9,15,18,21,25,28,31,34,42-undecaoxo-spiro[1,4,7,10,16,19,22,26,29,32,35-undecazatricyclo[34.5.1.0^10,14]dotetracont-38-ene-17,1′-cyclobutane]-23-carboxamide]?
Answer: Kd [1]: 0.12 nM; NRAS/KRAS (ratio of KD value for NRAS to KD value for KRAS) [2]: A (a compound having 10 or more and less than 20 is denoted as A); HRAS/KRAS (ratio of KD value for HRAS to KD value for KRAS) [3]: A (a compound having 10 or more and less than 20 is denoted as A); IC50 [4]: 27.5 nM

Question: How did the Kd [1] turn out when `CCO[C@@H]1C[C@H]2C(=O)NC3(CCC3)C(=O)N(C)[C@@H](C3CCCC3)C(=O)N(C)[C@H](C(=O)N(C)C)CC(=O)N(C)[C@@H](CSC)C(=O)N[C@@H]([C@@H](C)CC)C(=O)N(C)CC(=O)N(C)[C@H]3C/C=C\CCN(C3=O)[C@@H](CC3CCCCC3)C(=O)N(C)CC(=O)N[C@@H](CCc3cc(F)c(C(F)(F)F)c(F)c3)C(=O)N2C1` [PP1463, (2S,8S,12R,14S,20S,23S,27R,30S,36S,38Z)-2-(cyclohexylmethyl)-20-cyclopentyl-8-[2-[3,5-difluoro-4-(trifluoromethyl)phenyl]ethyl]-12-ethoxy-N,N,4,19,22,26,32,35-octamethyl-30-[(1S)-1-methylpropyl]-27-(methylsulfanylmethyl)-3,6,9,15,18,21,25,28,31,34,42-undecaoxo-spiro[1,4,7,10,16,19,22,26,29,32,35-undecazatricyclo[34.5.1.0^10,14]dotetracont-38-ene-17,1′-cyclobutane]-23-carboxamide] was run?
Answer: 0.13 nM

Question: What about the “NRAS/KRAS (ratio of KD value for NRAS to KD value for KRAS)” value [2] of the same compound?
Answer: A (a compound having 10 or more and less than 20 is denoted as A)

Question: What about the “HRAS/KRAS (ratio of KD value for HRAS to KD value for KRAS)” value [3] of the same compound?
Answer: A (a compound having 10 or more and less than 20 is denoted as A)

Question: And the IC50 [4]?
Answer: 44.5 nM

Question: What does the source list for `CCC[C@H]1C(=O)N[C@@H]([C@@H](C)CC)C(=O)N(C)CC(=O)N(C)[C@H]2C/C=C\CCN(C2=O)[C@@H](CC2CCCCC2)C(=O)N(C)CC(=O)N[C@@H](CCc2cc(F)c(C(F)(F)F)c(F)c2)C(=O)N2C[C@H](OCC)C[C@H]2C(=O)NC2(CCC2)C(=O)N(C)[C@@H](C2CCCC2)C(=O)N(C)[C@H](C(=O)N(C)C)CC(=O)N1C` [PP1464]?
Answer: Kd [1]: 0.15 nM; NRAS/KRAS (ratio of KD value for NRAS to KD value for KRAS) [2]: A (a compound having 10 or more and less than 20 is denoted as A); HRAS/KRAS (ratio of KD value for HRAS to KD value for KRAS) [3]: A (a compound having 10 or more and less than 20 is denoted as A); IC50 [4]: 32.3 nM

Question: With `CC[C@H](C)[C@@H]1NC(=O)[C@H](CC)N(C)C(=O)C[C@@H](C(=O)N(C)C)N(C)C(=O)[C@H](C2CCCC2)N(C)C(=O)C2(CCC2)NC(=O)[C@@H]2C[C@@H](C(F)(F)F)CN2C(=O)[C@H](CCc2cc(F)c(C(F)(F)F)c(F)c2)NC(=O)CN(C)C(=O)[C@H](CC2CCCCC2)N2CC/C=C\C[C@@H](C2=O)N(C)C(=O)CN(C)C1=O` [PP1465] as the compound, how does the Kd [1] read?
Answer: 0.36 nM

Question: What about the “NRAS/KRAS (ratio of KD value for NRAS to KD value for KRAS)” value [2] of the same compound?
Answer: A (a compound having 10 or more and less than 20 is denoted as A)

Question: And the “HRAS/KRAS (ratio of KD value for HRAS to KD value for KRAS)” value [3]?
Answer: A (a compound having 10 or more and less than 20 is denoted as A)

Question: What about the IC50 [4] of the same compound?
Answer: 34.1 nM

Question: What does the source list for `CCO[C@@H]1C[C@H]2C(=O)NC3(CCC3)C(=O)N(C)[C@@H](C3CCCC3)C(=O)N(C)[C@H](C(=O)N(C)C)CC(=O)N(C)[C@@H](CC)C(=O)N[C@@H]([C@@H](C)CC)C(=O)N(C)CC(=O)N(C)[C@H]3C/C=C\CCN(C3=O)[C@@H](CC3CCCCC3)C(=O)N(C)CC(=O)N[C@@H](CCc3cc(F)c(C(F)(F)F)c(F)c3)C(=O)N2C1` [PP1466, (2S,8S,12R,14S,20S,23S,27S,30S,36S,38Z)-2-(cyclohexylmethyl)-20-cyclopentyl-8-[2-[3,5-difluoro-4-(trifluoromethyl)phenyl]ethyl]-12-ethoxy-27-ethyl-N,N,4,19,22,26,32,35-octamethyl-30-[(1S)-1-methylpropyl]-3,6,9,15,18,21,25,28,31,34,42-undecaoxo-spiro[1,4,7,10,16,19,22,26,29,32,35-undecazatricyclo[34.5.1.0^10,14]dotetracont-38-ene-17,1′-cyclobutane]-23-carboxamide]?
Answer: Kd [1]: 0.14 nM; NRAS/KRAS (ratio of KD value for NRAS to KD value for KRAS) [2]: A (a compound having 10 or more and less than 20 is denoted as A); HRAS/KRAS (ratio of KD value for HRAS to KD value for KRAS) [3]: A (a compound having 10 or more and less than 20 is denoted as A); IC50 [4]: 33.2 nM

Question: How did the Kd [1] turn out when `CCO[C@@H]1C[C@H]2C(=O)NC3(CCC3)C(=O)N(C)[C@@H](C3CCCC3)C(=O)N(C)[C@H](C(=O)N(C)C)CC(=O)N(C)[C@@H](CC(C)C)C(=O)N[C@@H]([C@@H](C)CC)C(=O)N(C)CC(=O)N(C)[C@H]3C/C=C\CCN(C3=O)[C@@H](CC3CCCCC3)C(=O)N(C)CC(=O)N[C@@H](CCc3cc(F)c(C(F)(F)F)c(F)c3)C(=O)N2C1` [PP1467, (2S,8S,12R,14S,20S,23S,27S,30S,36S,38Z)-2-(cyclohexylmethyl)-20-cyclopentyl-8-[2-[3,5-difluoro-4-(trifluoromethyl)phenyl]ethyl]-12-ethoxy-27-isobutyl-N,N,4,19,22,26,32,35-octamethyl-30-[(1S)-1-methylpropyl]-3,6,9,15,18,21,25,28,31,34,42-undecaoxo-spiro[1,4,7,10,16,19,22,26,29,32,35-undecazatricyclo[34.5.1.0^10,14]dotetracont-38-ene-17,1′-cyclobutane]-23-carboxamide] was run?
Answer: 0.12 nM

Question: What about the “NRAS/KRAS (ratio of KD value for NRAS to KD value for KRAS)” value [2] of the same compound?
Answer: A (a compound having 10 or more and less than 20 is denoted as A)

Question: And the “HRAS/KRAS (ratio of KD value for HRAS to KD value for KRAS)” value [3]?
Answer: A (a compound having 10 or more and less than 20 is denoted as A)

Question: What about the IC50 [4] of the same compound?
Answer: 11.2 nM
